Measurements reported in patent US4732977A, “Carbapenem antibiotics” (priority 1986, dated 1988).
Values after ≈ are worked out from the molar mass of the structure shown. Where two headings read alike, the source gives them in different places.

Key:
S. faecalis A20688 = assay: M.I.C., tube dilution; assay type: cell-based; details: Enterococcus faecalis, A20688, overnight incubation at 37° C., Nutrient Broth; read-out: MIC
K. pneumoniae A20468 = assay: M.I.C., tube dilution; assay type: cell-based; details: Klebsiella pneumoniae, A20468, overnight incubation at 37° C., Nutrient Broth
E. coli A20341-1 = assay: M.I.C., tube dilution; assay type: cell-based; details: Escherichia coli
E. cloacae A-9659 = assay: M.I.C., tube dilution; assay type: cell-based; details: Enterobacter cloacae, A9659
P. rettgeri A22424 = assay: M.I.C., tube dilution; assay type: cell-based; details: Providencia rettgeri, A22424
S. aureus A-9537 = assay: M.I.C., tube dilution; assay type: cell-based; details: Staphylococcus aureus, read-out: MIC
P. vulgaris A21559 = assay: M.I.C., tube dilution; assay type: cell-based; details: Proteus vulgaris, A21559, overnight incubation at 37° C., Nutrient Broth; read-out: MIC
P. aeruginosa A-9843a = assay: animal or person; assay type: in vivo, mice; details: Pseudomonas aeruginosa, A9843A, in Mus musculus, im, read-out: PD50/treatment
Protocol: (§1) The PD50 (dose in mg/kg required to give protection to 50% of the infected mice) is indicated.
with drugs 0 and 2 hours postinfection.
(§2) The PD50 (dose in mg/kg) required to give protection to 50% of the infected mice is indicated.

S. pneumoniae A-9585 = assay: M.I.C., tube dilution; assay type: cell-based; details: Streptococcus pneumoniae, A9585; overnight incubation at 37° C., Nutrient Broth; read-out: MIC
P. aeruginosa A21213 = assay: M.I.C., tube dilution; assay type: cell-based; details: Pseudomonas aeruginosa, A21213, overnight incubation at 37° C., Nutrient Broth; read-out: MIC
S. aureus A-9606 = assay: Protective effect in intramuscular treatment of infected mice; assay type: in vivo; details: Staphylococcus aureus, read-out: PD50/treatment
Protocol: as §1
with drugs 0 and 2 hours postinfection.
as §2

E. coli A-15119 = assay: as above; assay type: in vivo; details: Escherichia coli, read-out: PD50/treatment
Protocol: as §1
with drugs 0 and 2 hours postinfection.
as §2

B. fragilis A22862 = assay: M.I.C., tube dilution; assay type: cell-based; details: Bacteroides fragilis, overnight incubation at 37° C., Nutrient Broth
[1] = test system: S. aureus A15097 (Meth-res.); assay: M.I.C., tube dilution; assay type: cell-based; details: Staphylococcus aureus, overnight incubation at 37° C.
K. pneumoniae A9664 = assay: Protective effect in intramuscular treatment of infected mice; assay type: in vivo; details: Klebsiella pneumoniae
Description: as §2

[2] = Blood levels in mice after intramuscular administration; details: mouse, blood, im, 20 mg/kg;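 further: compounds dissolved in 0.1 M phosphate buffer at pH 7, data from one experiment using four mice for each compound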
Description: Compounds were solubilized in 0.1 M phosphate buffer pH 7.
a single test; 4 mice used per compound.
Compounds were solubilized in 0.1 M phosphate buffer, pH 7.
on a single test; 4 mice per compound.

P. aeruginosa A24081 = assay: Protective effect in intramuscular treatment of infected mice; assay type: in vivo; details: Pseudomonas aeruginosa, read-out: PD50/treatment
Description: as §2

P. mirabilis A-9900 = assay: as above; assay type: in vivo; details: Proteus mirabilis, mice, i.m., read-out: PD50/treatment
Protocol: as §1
with drugs 0 and 2 hours postinfection.
as §2

H. influenzae A-9833 = assay: M.I.C., tube dilution; assay type: cell-based; details: Haemophilus influenzae, A9833; overnight incubation at 37° C., Nutrient Broth
H. influenzae A21518 = assay: M.I.C., tube dilution; assay type: cell-based; details: Haemophilus influenzae, overnight incubation at 37° C., Nutrient Broth
S. pyogenes A-9604 = assay: M.I.C., tube dilution; assay type: cell-based; details: Streptococcus pyogenes, A9604; overnight incubation at 37° C., Nutrient Broth; read-out: MIC
E. coli A15119 = assay: M.I.C., tube dilution; assay type: cell-based; details: Escherichia coli, A15119
S. marcescens A20019 = assay: M.I.C., tube dilution; assay type: cell-based; details: Serratia marcescens, A20019; overnight incubation at 37° C., Nutrient Broth
K. pneumoniae A-9664 = assay: M.I.C., tube dilution; assay type: cell-based; details: Klebsiella pneumoniae, A9664, overnight incubation at 37° C., Nutrient Broth
[3] = A203411, overnight incubation at 37° C., Nutrient Broth, read-out: MIC
[4] = im, mice, i.m., S. aureus A9606
[5] = im, K. pneumoniae A9664, read-out: PD50/treatment
[6] = im, mice, i.m., P. aeruginosa A24081
[7] = overnight incubation at 37° C., Nutrient Broth, read-out: MIC

Compound | MIC (S. faecalis A20688) | MIC (S. aureus A-9537; A9537, +50% serum) | MIC (P. vulgaris A21559) | ED50 (P. aeruginosa A-9843a) | MIC (S. pneumoniae A-9585) | MIC (P. aeruginosa A21213) | AUC [2] | Cmax [2] | half-life [2] | MIC (S. pyogenes A-9604) | further results
CC(SC1=C(C(=O)[O-])N2C(=O)[C@H]([C@@H](C)O)[C@H]2C1)c1cc[n+](C)cc1 (stereo partly shown) [Example 12] | 0.5 µg/mL (≈ 1.44 µM) | 0.016 µg/mL (≈ 0.0459 µM) | 0.016 µg/mL (≈ 0.0459 µM) | 1.8 mg/kg | 0.002 µg/mL (≈ 0.00574 µM) | 2 µg/mL (≈ 5.74 µM) | – | – | – | – | MIC (K. pneumoniae A20468): 0.06 µg/mL (≈ 0.172 µM); MIC (E. coli A20341-1; [3]): 0.008 µg/mL (≈ 0.023 µM); MIC (E. cloacae A-9659): 0.06 µg/mL (≈ 0.172 µM); MIC (P. rettgeri A22424): 0.13 µg/mL (≈ 0.373 µM); MIC (S. aureus A-9537; A9537, overnight incubation at 37° C., Nutrient Broth): 0.008 µg/mL (≈ 0.023 µM); ED50 (S. aureus A-9606; [4]): 0.89 mg/kg
Cc1ccc[n+](C)c1CSC1=C(C(=O)[O-])N2C(=O)[C@H]([C@@H](C)O)[C@H]2C1 [Example 7, 3-(N-Methyl-3-methylpyridine-2-methanethio)-6α-[1-(R)-hydroxyethyl]-7-oxo-1-azabicyclo(3.2.0)hept-2-ene-2-carboxylate] | – | – | 0.008 µg/mL (≈ 0.023 µM) | 0.2 mg/kg | – | – | 11800 ng·h/mL | 19200 ng/mL | 11 min | – | ED50 (E. coli A-15119; A15119, im): 0.2 mg/kg; MIC (B. fragilis A22862): 0.016 µg/mL (≈ 0.0459 µM); MIC [1]: 2 µg/mL (≈ 5.74 µM); ED50 (K. pneumoniae A9664; [5]): 1 mg/kg; ED50 (P. aeruginosa A24081; [6]): 0.1 mg/kg; ED50 (P. mirabilis A-9900; im, P. mirabilis A9900): 2.4 mg/kg; ED50 (S. aureus A-9606; A9606, im): 0.2 mg/kg
C[C@@H](O)[C@H]1C(=O)N2C(C(=O)[O-])=C(SCCc3cccc[n+]3C)C[C@H]12 [Example 5, 3-(N-Methylpyridine-2-yl-ethanethio)-6α-[1-(R)-hydroxyethyl]-7-oxo-1-azabicyclo(3.2.0)hept-2-ene-2-carboxylate] | – | – | 0.016 µg/mL (≈ 0.0459 µM) | 1.6 mg/kg | – | 2 µg/mL (≈ 5.74 µM) | – | – | – | – | MIC (H. influenzae A-9833): 4 µg/mL (≈ 11.5 µM); ED50 (E. coli A-15119; A15119, im, mice, i.m., E. coli, strain not given): 4 mg/kg; MIC (B. fragilis A22862): 0.03 µg/mL (≈ 0.0861 µM); ED50 (K. pneumoniae A9664; A9664, im, i.m., K. pneumoniae, strain not given, read-out: PD50/treatment): 3 mg/kg; ED50 (P. mirabilis A-9900; A9900, im, P. mirabilis, strain not given): 10 mg/kg; MIC (H. influenzae A21518): 4 µg/mL (≈ 11.5 µM); ED50 (S. aureus A-9606; A9606, im, mice, i.m., S. aureus, strain not given): 0.2 mg/kg
C[C@@H](O)[C@H]1C(=O)N2C(C(=O)[O-])=C(SCc3n(C)cc[n+]3C)C[C@H]12 [Example 9, 3-(N,N'-Dimethylimidazole-2-yl-methanethio)-6α-[1-(R)-hydroxyethyl]-7-oxo-1-azabicyclo(3.2.0)hept-2-ene-2-carboxylate] | – | 0.008 µg/mL (≈ 0.0237 µM) | 0.008 µg/mL (≈ 0.0237 µM) | 0.19 mg/kg | 0.001 µg/mL (≈ 0.00296 µM) | – | 8500 ng·h/mL | 16700 ng/mL | 12 min | 0.001 µg/mL (≈ 0.00296 µM) | ED50 (E. coli A-15119; im, mice, i.m., E. coli A15119): 1.2 mg/kg; ED50 (K. pneumoniae A9664; [5]): 1.8 mg/kg; ED50 (P. aeruginosa A24081; A24081, im): 0.19 mg/kg; ED50 (P. mirabilis A-9900; im, P. mirabilis A9900): 7.1 mg/kg
C[C@@H](O)[C@H]1C(=O)N2C(C(=O)[O-])=C(SCc3cn(C)n[n+]3C)C[C@H]12 [Example 15 "A", 3-[4-(N,N-dimethyl-1,2,3-triazolium)methylthio]-6α-[1-(R)-hydroxyethyl]-7-oxo-1-azabicyclo(3.2.0)hept-2-ene-2-carboxylate] | – | – | 0.008 µg/mL (≈ 0.0236 µM) | 0.39 mg/kg | 0.0005 µg/mL (≈ 0.00148 µM) | – | 9500 ng·h/mL | 16700 ng/mL | 12 min | 0.0005 µg/mL (≈ 0.00148 µM) | –
Cc1scc(CSC2=C(C(=O)[O-])N3C(=O)[C@H]([C@@H](C)O)[C@H]3C2)[n+]1C [Example 8, 3-(2-Methyl-N-methyl-thiazole-4-yl-methanethio)-6-α-[1-(R)-hydroxyethyl]-7-oxo-1-azabicyclo(3.2.0)hept-2-ene-2-carboxylate] | 0.5 µg/mL (≈ 1.41 µM) | – | 0.03 µg/mL (≈ 0.0846 µM) | 0.19 mg/kg | – | – | 10500 ng·h/mL | 18800 ng/mL | 11 min | – | ED50 (E. coli A-15119; im, mice, i.m., E. coli A15119): 0.86 mg/kg; ED50 (K. pneumoniae A9664; [5]): 1.8 mg/kg; ED50 (P. aeruginosa A24081; [6]): 0.33 mg/kg; ED50 (P. mirabilis A-9900; im, P. mirabilis A9900): 1.4 mg/kg; ED50 (S. aureus A-9606; [4]): 0.21 mg/kg
C[C@@H](O)[C@H]1C(=O)N2C(C(=O)[O-])=C(SCc3cn(CC(=O)O)n[n+]3C)C[C@H]12 [Example 18, Potassium 3-[4-(1-carboxylatomethyl-3-methyl-1,2,3-triazolium)-methanethio]-6α-[1-(R)-hydroxyethyl]-7-oxo-1-azabicyclo[3.2.0]hept-2-ene-2-carboxylate] | 63 µg/mL | > 63 µg/mL | – | – | 1 µg/mL | 63 µg/mL | 3900 ng·h/mL | 14900 ng/mL | 6 min | 2 µg/mL | MIC (K. pneumoniae A20468; read-out: MIC): 63 µg/mL; MIC (E. coli A20341-1; [3]): 16 µg/mL; MIC (E. cloacae A-9659; [7]): 63 µg/mL; MIC (E. coli A15119; [7]): 16 µg/mL
Cc1c(CSC2=C(C(=O)[O-])N3C(=O)[C@H]([C@@H](C)O)[C@H]3C2)ccc[n+]1C [Example 14, 3-(2-Methyl-N-methylpyridine-3-yl-methanethio)-6α[1-(R)-hydroxyethyl]-7-oxo-1-azabicyclo(3.2.0)hept-2-ene-2-carboxylate] | – | – | 0.016 µg/mL (≈ 0.0459 µM) | 0.45 mg/kg | 0.0005 µg/mL (≈ 0.00144 µM) | 0.5 µg/mL (≈ 1.44 µM) | 7600 ng·h/mL | 15800 ng/mL | 13 min | 0.0005 µg/mL (≈ 0.00144 µM) | ED50 (S. aureus A-9606; [4]): 0.07 mg/kg
CCC[n+]1ccc(CSC2=C(C(=O)[O-])N3C(=O)[C@H]([C@@H](C)O)[C@H]3C2)cc1 [Example 6, 3-(1-Propylpyridine-4-yl-methanethio)-6α-[1-(R)-hydroxyethyl]-7-oxo-1-azabicyclo(3.2.0)hept-2-ene-2-carboxylate] | 0.5 µg/mL (≈ 1.38 µM) | 0.06 µg/mL (≈ 0.166 µM) | 0.06 µg/mL (≈ 0.166 µM) | 0.4 mg/kg | – | 1 µg/mL (≈ 2.76 µM) | 8500 ng·h/mL | 17700 ng/mL | 9 min | – | MIC (B. fragilis A22862): 0.03 µg/mL (≈ 0.0828 µM); MIC (E. coli A20341-1; A203411, overnight incubation at 37° C., Nutrient Broth): 0.06 µg/mL (≈ 0.166 µM); MIC [1]: 4 µg/mL (≈ 11 µM); MIC (E. coli A15119; overnight incubation at 37° C., Nutrient Broth): 0.06 µg/mL (≈ 0.166 µM)
C[C@@H](O)[C@H]1C(=O)N2C(C(=O)[O-])=C(SCCc3cc[n+](C)cc3)C[C@H]12 [Example 2] | – | – | 0.016 µg/mL (≈ 0.0459 µM) | – | 0.001 µg/mL (≈ 0.00287 µM) | 2 µg/mL (≈ 5.74 µM) | 5300 ng·h/mL | 13900 ng/mL | 9 min | 0.001 µg/mL (≈ 0.00287 µM) | MIC (E. coli A20341-1; A203411, table 2, no inoculum dilution printed, read-out: MIC): 0.016 µg/mL (≈ 0.0459 µM); MIC (E. coli A15119; table 2, no inoculum dilution printed, read-out: MIC): 0.016 µg/mL (≈ 0.0459 µM)
Cc1sc(CSC2=C(C(=O)[O-])N3C(=O)[C@H]([C@@H](C)O)[C@H]3C2)c(C)[n+]1C [Example 10, 3-(2,3,4-Trimethylthiazole-5-yl-methanethio)-6α-[1-(R)-hydroxyethyl]-7-oxo-1-azabicyclo(3.2.0)hept-2-ene-2-carboxylate] | – | – | 0.016 µg/mL (≈ 0.0434 µM) | – | 0.001 µg/mL (≈ 0.00271 µM) | 2 µg/mL (≈ 5.43 µM) | 9500 ng·h/mL | 20100 ng/mL | 11 min | 0.001 µg/mL (≈ 0.00271 µM) | MIC (S. marcescens A20019): 0.06 µg/mL (≈ 0.163 µM); MIC (K. pneumoniae A-9664): 0.06 µg/mL (≈ 0.163 µM)
